Experimental data as given in PubChem BioAssay AID2124 (Sanford-Burnham Center for Chemical Genomics, 2009).
pEC50: −log10 of the molar value. Inconclusive results are not listed. Calls of active or inactive are those of the source. No rule for the calls is given here; tested in MIN6 cells.

Columns and labels:
[1] = GFP-wavelength compound autofluorescence in cells – imaging, high-content imaging, artefact control, dose response (AID 2124); conditions: cells, GFP-channel autofluorescence, high-content imaging, at 10 µM; for z-score: stronger effect = higher value;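 as to cell count: cells exposed to compound for 48 hours before fixing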;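 as to z-score: cells exposed to compound for 48 hours before fixing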
[2] = test system: cells, GFP-channel autofluorescence, high-content imaging; experiment: as above

COc1ccc(NC(=O)/C(C#N)=C\c2ccc(N3CCOCC3)o2)cc1
cell count [1]: 3270 cells
EC50 [2]: 11.6 µM (inactive)

COc1ccc(C(=O)c2sc3nc(-c4ccccc4)ccc3c2N)cc1OC
cell count [1]: 2560 cells
pEC50 [2]: 5.73

CN1/C(=C\C=C2/SC(=S)NC2=O)C(C)(C)c2ccccc21
cell count [1]: 147 cells
pEC50 [2]: 5.21

COc1cccc(C2C3CN(C)CC=C3C(C#N)=C(N)C2(C#N)C#N)c1OC (stereo not given)
cell count [1]: 2400 cells
pEC50 [2]: 5.13

Cc1c(N=C2N=C(NC(=O)c3cccs3)c3ccccc32)c(=O)n(-c2ccccc2)n1C
cell count [1]: 2570 cells
EC50 [2]: 11.8 µM (inactive)

N#C/C(=C/c1ccc(N2CCOCC2)o1)C(=O)Nc1ccccc1
cell count [1]: 3080 cells
pEC50 [2]: 5.17

CN1CC=C2C(C#N)=C(N)C(C#N)(C#N)C(c3ccncc3)C2C1 (stereo not given)
cell count [1]: 2850 cells
EC50 [2]: 14.8 µM (inactive)

CCOC(=O)N1CCN(/C=C(\C#N)c2nc3ccccc3s2)CC1
cell count [1]: 2980 cells
EC50 [2]: 11.7 µM (inactive)

Nc1ccc2c(c1)Cc1cc([N+](=O)[O-])ccc1-2
cell count [1]: 2910 cells
pEC50 [2]: 5.37

CCCN1C(=O)/C(=C/c2c(NCCCOC(C)C)nc3c(C)cccn3c2=O)SC1=S
cell count [1]: 2790 cells
EC50 [2]: > 16 µM (inactive)

Cc1cc(N2CCCC2)ccc1/C=C1/C(=O)N(C)C(=S)N1C
cell count [1]: 2940 cells
pEC50 [2]: 5.15

COc1ccc(C2C(C(C)=O)=C(C)N=c3s/c(=C\c4cc(C)n(C)c4C)c(=O)n32)c(OC)c1 (stereo not given)
cell count [1]: 3650 cells
pEC50 [2]: 5.22

Cc1oc(C)c2c(=O)ccc3c(c12)OC(N)=C(C#N)C3c1ccccc1Cl (stereo not given)
cell count [1]: 3240 cells
EC50 [2]: 14.8 µM (inactive)

O=[N+]([O-])c1ccc(/C=C/C2=NN(c3ccccc3)C(c3ccco3)C2)o1 (stereo not given)
cell count [1]: 3240 cells
pEC50 [2]: 5.41

CC(C)(C)NC(=S)N/N=C\c1ccc(-c2ccc([N+](=O)[O-])cc2)o1
cell count [1]: 3000 cells
EC50 [2]: 11.4 µM (inactive)

Cc1cccn2c(=O)c(/C=C3\SC(=S)NC3=O)c(NCCCN3CCOCC3)nc12
cell count [1]: 2700 cells
pEC50 [2]: 5.03

Cc1nonc1NC(=O)CSc1nc2c(C)cccc2cc1C#N
cell count [1]: 3270 cells
pEC50 [2]: 5.03

CCOCCCNc1nc2c(C)cccn2c(=O)c1/C=C1\SC(=S)N(C(C)CC)C1=O (stereo not given)
cell count [1]: 2910 cells
EC50 [2]: > 16 µM (inactive)

CC(C)NC(=O)/C(C#N)=C/c1ccc(N(C)C)o1
cell count [1]: 3230 cells
EC50 [2]: 14.3 µM (inactive)

Cc1nn(C)cc1N1C(=O)c2cccc3c(N)ccc(c23)C1=O
cell count [1]: 2940 cells
EC50 [2]: > 16 µM (inactive)

CN(C)c1ccc(/C=C/C(=O)c2c(O)c3ccccc3oc2=O)cc1
cell count [1]: 3230 cells
EC50 [2]: > 16 µM (inactive)

CCOC(=O)Cc1csc(NC(=O)c2sc3nc4c(C)cc(C)cc4cc3c2N)n1
cell count [1]: 2560 cells
EC50 [2]: 10.9 µM (inactive)

CCN(CC)c1ccc2cc(-c3nc(-c4ccc(OC)cc4)cs3)c(=O)oc2c1
cell count [1]: 2750 cells
EC50 [2]: > 16 µM (inactive)

CC(=O)c1c(N2CCOCC2)[nH]c(-c2ccccc2)nc1=S
cell count [1]: 3510 cells
pEC50 [2]: 5.98

Nc1c(C(=O)c2ccccc2)sc2nsc(SCCN3CCCC3)c12
cell count [1]: 2210 cells
pEC50 [2]: 5.10

CCCCOc1ccc(-c2cc(C(F)(F)F)c(C#N)c(SCC(=O)O)n2)cc1
cell count [1]: 3060 cells
EC50 [2]: 12.3 µM (inactive)

CCN(CC)c1ccc(/C=C(/C#N)C(=O)NC(C)C)o1
cell count [1]: 3080 cells
EC50 [2]: 14.2 µM (inactive)

CCN1CC=C2C(C1)C(c1ccc(Cl)s1)C(C#N)=C(N)C2(C#N)C#N (stereo not given)
cell count [1]: 3020 cells
EC50 [2]: 11.5 µM (inactive)

COc1cc(N2CCCC2)c(OC)cc1/C=C(/C#N)c1cccc(F)c1
cell count [1]: 2910 cells
pEC50 [2]: 5.19

CCN(CC)c1ccc(/C=C(\C#N)C(=O)c2ccc(Br)cc2)cc1
cell count [1]: 2740 cells
pEC50 [2]: 5.29

CCN(CC)c1ccc2cc(/C(N)=N/NC(=O)c3cccs3)c(=O)oc2c1
cell count [1]: 3050 cells
pEC50 [2]: 5.05

N#C/C(=C/c1ccc(N2CCCCC2)o1)c1cccc(F)c1
cell count [1]: 1730 cells
pEC50 [2]: 5.27

N#C/C(=C\c1ccc(N2CCCCC2)o1)C(N)=O
cell count [1]: 3260 cells
EC50 [2]: 12.2 µM (inactive)

Cc1ccc(-c2cn3nc(-c4ccccc4)c(-c4ccccc4)nc3n2)cc1
cell count [1]: 3200 cells
pEC50 [2]: 5.22

C/C(=N\Nc1ccc([N+](=O)[O-])cc1)c1cc2ccccc2o1
cell count [1]: 2980 cells
pEC50 [2]: 5.05

CCCCN1C(=O)/C(=C/C=C2\SCCN2C)SC1=S
cell count [1]: 2930 cells
pEC50 [2]: 5.18

COc1ccc(C(=O)/C=C/c2ccc(N(C)C)cc2)c(OC)c1
cell count [1]: 2380 cells
pEC50 [2]: 5.00

N#C/C(=C/c1ccc(N2CCOCC2)o1)c1ccc(Cl)cc1
cell count [1]: 1320 cells
pEC50 [2]: 5.14

Cc1oc(C)c2c(=O)ccc3c(c12)OC(N)=C(C#N)C3c1ccc(F)cc1 (stereo not given)
cell count [1]: 2880 cells
EC50 [2]: > 16 µM (inactive)

O=C(/C=C/c1ccc(N2CCC(c3ccccc3)=N2)cc1)c1ccccc1
cell count [1]: 2900 cells
pEC50 [2]: 5.22

Cc1ccc(NS(=O)(=O)c2cc([N+](=O)[O-])ccc2N/N=C/c2sc(N3CCOCC3)nc2-c2ccccc2)c(C)c1
cell count [1]: 2790 cells
pEC50 [2]: 5.35

Cc1c2ccccc2nc2c(F)c(NC(C)C)c(F)c(F)c12
cell count [1]: 2550 cells
pEC50 [2]: 5.04

CNC(=O)c1c(NC(=O)c2ccc(S(=O)(=O)N3CCCc4ccccc43)cc2)sc2c1CCN(C)C2
cell count [1]: 3190 cells
pEC50 [2]: 5.09

CCCN1C(=O)/C(=C/C=C2\N(CC)c3ccccc3C2(C)C)SC1=S
cell count [1]: 3030 cells
pEC50 [2]: 5.57

Nc1c(C(=O)Nc2nc3ccccc3s2)sc2nc(-c3cccs3)ccc12
cell count [1]: 217 cells
pEC50 [2]: 5.06

COCCN1C(=O)/C(=C/c2ccc(N3CCCC3)cc2)SC1=S
cell count [1]: 3330 cells
pEC50 [2]: 5.01

Cc1cc2c(C(F)(F)F)cc(=O)oc2c2c1NCCC2
cell count [1]: 3250 cells
pEC50 [2]: 5.17

CC(C)/C=C1\CC/C(=C\c2ccc(N(C)C)cc2)C1=O
cell count [1]: 2850 cells
pEC50 [2]: 5.02

CC(C)N1CC=C2C(C#N)=C(N)C(C#N)(C#N)[C@H](c3ccoc3)[C@H]2C1
cell count [1]: 2840 cells
pEC50 [2]: 5.17

N#C/C(=C\c1ccc(N2CCOCC2)o1)c1ccccc1
cell count [1]: 2130 cells
EC50 [2]: > 16 µM (inactive)

N#C/C(=C\c1ccc(N2CCOCC2)o1)C(=O)NCCc1ccccc1
cell count [1]: 3060 cells
pEC50 [2]: 5.06

Cc1ccnc(N/C=C(\C#N)c2nc(-c3cccc(Br)c3)cs2)c1
cell count [1]: 2880 cells
pEC50 [2]: 5.05

Cn1c(/C(C#N)=C/c2ccc(-c3ccc(S(N)(=O)=O)cc3)o2)nc2ccccc21
cell count [1]: 2680 cells
pEC50 [2]: 5.09

CN(C)c1ccc(/C=C/C(O)=C2/C(=O)N(C)C3(C)CC2c2ccccc2O3)cc1 (stereo not given)
cell count [1]: 2640 cells
pEC50 [2]: 5.14

COc1ccc(/C=C2\CC/C(=C\c3ccc(OC)cc3OC)C2=O)c(OC)c1
cell count [1]: 3090 cells
pEC50 [2]: 5.17

COc1cc2c(cc1OC)C1=CC(=O)C(=O)N1C(C)(C)C2
cell count [1]: 2990 cells
pEC50 [2]: 5.24

O=C(OCCN1C(=O)c2cccc3c(N4CCOCC4)ccc(c23)C1=O)c1ccc(Cl)cc1Cl
cell count [1]: 1690 cells
pEC50 [2]: 5.16

CC(=O)Nc1ccc(N=Cc2c(O)c(C(=O)Nc3ccccc3)cc3ccccc23)cc1
cell count [1]: 1540 cells
EC50 [2]: 11.1 µM (inactive)

Cn1cc(/C=C2\SC(=S)N(NC(=O)c3ccccc3Cl)C2=O)c2ccccc21
cell count [1]: 3740 cells
EC50 [2]: 13.9 µM (inactive)

O=C1S/C(=C\c2ccc(N3CCOCC3)o2)C(=O)N1c1ccccc1
cell count [1]: 1060 cells
EC50 [2]: > 16 µM (inactive)

COc1ccc2c(C)cc(SCC(=O)N(C)C3CCS(=O)(=O)C3)nc2c1 (stereo not given)
cell count [1]: 3270 cells
pEC50 [2]: 5.02

COc1ccc(/C=C2\C(=O)NC(=S)N2C(=O)c2ccc(F)cc2)cc1
cell count [1]: 2980 cells
EC50 [2]: > 16 µM (inactive)

O=[N+]([O-])c1ccc(N2N=C(c3ccco3)CC2c2ccccc2)cc1 (stereo not given)
cell count [1]: 2840 cells
pEC50 [2]: 5.20

COc1ccc2nc(SCC(C)=O)c(C#N)cc2c1
cell count [1]: 2490 cells
pEC50 [2]: 5.14

Cc1cc(N2CCCC2)ccc1/C=C1\NC(=S)N(C)C1=O
cell count [1]: 2440 cells
pEC50 [2]: 5.11

Cc1ccc(N2C(=O)C3C(C(=O)c4ccccc4)=NN(c4ccccc4)C3C2=O)cc1 (stereo not given)
cell count [1]: 2980 cells
EC50 [2]: > 16 µM (inactive)

CN1CC=C2C(C#N)=C(N)C(C#N)(C#N)C(Cc3ccccc3)C2C1 (stereo not given)
cell count [1]: 3290 cells
EC50 [2]: 13.7 µM (inactive)

COc1ccccc1N/C=C/c1onc(C)c1[N+](=O)[O-]
cell count [1]: 3140 cells
pEC50 [2]: 5.10

CN1C(=O)C(=Cc2ccc(N3CCCCC3)o2)C(=O)N(C)C1=S
cell count [1]: 2940 cells
EC50 [2]: > 16 µM (inactive)

CCOC(=O)c1sc2cc([N+](=O)[O-])cc(SCC(C)C)c2c1N
cell count [1]: 3070 cells
pEC50 [2]: 5.91

CCN1CC=C2C(C#N)=C(N)C(C#N)(C#N)C(CCc3ccccc3)C2C1 (stereo not given)
cell count [1]: 3160 cells
pEC50 [2]: 5.03

O=c1oc2cc(O)ccc2cc1-c1nc2c(s1)CCc1ccccc1-2
cell count [1]: 2720 cells
pEC50 [2]: 5.13

CCCN1C(=O)S/C(=C\c2ccc(N3CCOCC3)o2)C1=O
cell count [1]: 194 cells
EC50 [2]: > 16 µM (inactive)

COC(=O)C1=C(N)n2c(s/c(=C\c3cccnc3)c2=O)=C(C(=O)OC)C1c1cccnc1 (stereo not given)
z-score [1]: -0.25 (inactive)
cell count [1]: 2640 cells

CN(C)c1ccc(/C=C2\N=C(c3ccc(Cl)c([N+](=O)[O-])c3)NC2=O)cc1
z-score [1]: -0.33 (inactive)
cell count [1]: 2940 cells

O=C1C=C(Nc2ccc(O)cc2)CC(c2ccco2)C1 (stereo not given)
z-score [1]: -0.39 (inactive)
cell count [1]: 3020 cells

CCCS(=O)(=O)N1CCC(C(=O)N2CCOCC2)CC1
z-score [1]: -0.38 (inactive)
cell count [1]: 2930 cells

O=S(=O)(Cc1ccc(Cl)cc1)c1ccccc1-c1nnc(-c2ccccc2)o1
z-score [1]: -0.39 (inactive)
cell count [1]: 3320 cells

O=C(COc1ccccc1)N1CCN=C1c1ccccc1
z-score [1]: -0.33 (inactive)
cell count [1]: 3190 cells

CC(=O)Cc1cc(O)c2ccccc2c1OC(=O)c1ccc(Br)cc1
z-score [1]: -0.26 (inactive)
cell count [1]: 2650 cells
